Measured values reported in patent publication US20040028616A1, “Inhibition of lung metastases by aerosol delivery of p53 gene and anti-cancer compounds” (priority 2002, published 2004).

Key:
[1] = system: B16-F10 cells; assay: In vitro effect of p53 gene and 9NC on B16-F10 cell proliferation (hematocytometer cell count); assay type: cell-based; conditions: drug >0.5 mg/ml; data not shown
Experimental: B16-F10 cells grown in tissue culture plates (20,000 cells/well in a 48 well plate; […] cells/well in a 12 well plate) are transfected with PEI-DNA complexes (1 μg/ml; p53 or control empty plasmid, Neo) for 24 hours. […] The proliferation of B16-F10 cells 24 hours later was evaluated using the hematocytometer. To count the cells, the cell layer was washed with PBS and then trypsinized with 0.25% trypsin. The Alamar Blue Assay (Trek Diagnostic Systems, Inc) was also performed to test the viability of the cells (data not shown).
Control groups included cells treated with the genes (p53 and Neobam) alone, or with the drug (9-nitrocamptothecin) alone, or with Neobam and 9-nitrocamptothecin in combination. […] The p53 expression levels in parental and p53 treated B16-F10 cells have been reported previously (8).

[2] = system: B16-F10 lung metastases; assay: In vivo effect of aerosol PEI-p53 and 9NC-DLPC on established B16-F10 lung metastases; design: species or system C57BL/6 mice; conditions: lower dose, agent alone
Experimental: C57BL/6 mice (7-8 weeks old, Harlan Sprague Dawley, Houston, Tex.) were injected via the tail vein with 25,000 B16-F10 cells on day 0. […] Animals in the single agent therapy group were administered p53 one time weekly or 9-nitrocamptothecin twice weekly.
The dosage for treatment was 2 mg plasmid/10 ml of aerosolized solution at a PEI:DNA (N:P) ratio of 10:1 for DNA, and 5 mg 9-nitrocamptothecin at a concentration of 0.5 mg/ml at a 9 nitrocamptothecin:dilauroylphosphatidylcholine weight ratio of 1:50. Aerosol delivery of drugs and genes was performed using 5% CO2-in-air for increased pulmonary deposition. On day 25-post tumor inoculation, the mice were sacrificed, lungs were fixed and the tumor index was calculated.
Tumor index was calculated by the formula: Tumor index=lung weights×average grade for the group. […] The growth of tumor contiguous to the lung was considered as a part of the lung for weighing the lungs. Values are mean+SD (n=10 mice per group).

[3] = system: B16-F10 lung metastases; assay: Survival of B16-F10 challenged mice with PEI-p53/9NC-DLPC aerosol treatment; assay type: in vivo, C57BL/6 mice; conditions: aerosol treatment from day 11 for two weeks; n=10 mice per group
Experimental: C57BL/6 mice (n=10 mice per group) were injected via the tail vein with 25,000 B16-F10 cells on day 0 and the tumor was allowed to establish until day 10. The mice were then left untreated; or exposed to PEI-p53 aerosol complexes, to 9-nitrocamptothecin alone or to a sequential combination of p53 and 9-nitrocamptothecin, or 9-nitrocamptothecin and Neobam combination starting day 11 after tumor cell injection. Neobam was used as a negative control. The dosage was twice a week for drug or gene alone; and in combination once a week for gene and, twice a week for drug therapy. The mice were treated for two weeks, and then monitored over time for their survival.

CC[C@@]1(O)C(=O)OCc2c1cc1n(c2=O)Cc2cc3c([N+](=O)[O-])cccc3nc2-1 [9-nitrocamptothecin]
inhibition of B16-F10 as single agent, increased drug concentration [1]: very potent inhibition | suppression of metastatic growth or increase of survival by single agent [2]: neither the p53 nor the 9-nitrocamptothecin alone is potent enough | mean survival time [3]: 29 ± 3 days
